Test results: ChEMBL document CHEMBL1131172 (J Med Chem, 1998)

Columns and labels:
[1] = test system: NCI-H23; assay: inhibition of the growth of non-small-cell lung cancer (NCI-H23) cell line; assay type: functional; settings: Homo sapiens
[2] = test system: NCI-H522; assay: Inhibition of the growth of non-small-cell lung cancer (NCI-H522) cell line at 0.01 uM; assay type: functional; settings: Homo sapiens
[3] = test system: SF-539; assay: inhibition of the growth of CNS cancer(SF-539) cell line; assay type: functional; settings: Homo sapiens
[4] = test system: NCI-H322M; assay: Inhibition of the growth of non-small-cell lung cancer (NCI-H322M) cell line at 0.01 uM; assay type: functional; settings: Homo sapiens
[5] = test system: 786-0; assay: inhibition of the growth of renal cancer(786-0) cell line; assay type: functional; settings: Homo sapiens
[6] = test system: IGROV-1; assay: inhibition of the growth of ovarian cancer(IGROVI) cell line; assay type: functional; settings: Homo sapiens
[7] = test system: HCT-15; assay: inhibition of the growth of colon cancer(HCT-15) cell line; assay type: functional; settings: Homo sapiens
[8] = test system: HCT-116; assay: Inhibition of the growth of colon cancer(HCT116) cell line; assay type: functional; settings: Homo sapiens
[9] = test system: DU-145; assay: inhibition of the growth of prostate cancer(DU-145) cell line; assay type: functional; settings: Homo sapiens
[10] = test system: UO-31; assay: inhibition of the growth of renal cancer(UO-31) cell line; assay type: functional; settings: Homo sapiens
[11] = test system: SF-539; assay: Inhibition of the growth of CNS cancer(SF-539) cell line at 0.01 uM; assay type: functional; settings: Homo sapiens
[12] = test system: HCT-116; assay: Inhibition of the growth of colon cancer(HCT116) cell line at 0.01 uM; assay type: functional; settings: Homo sapiens
[13] = test system: SF-268; assay: Inhibition of the growth of CNS cancer(SF-268) cell line at 0.01 uM; assay type: functional; settings: Homo sapiens
[14] = test system: SF-295; assay: inhibition of the growth of CNS cancer(SF-295) cell line; assay type: functional; settings: Homo sapiens
[15] = test system: SF-295; assay: Inhibition of the growth of CNS cancer(SF-295) cell line at 0.01 uM; assay type: functional; settings: Homo sapiens
[16] = test system: MOLT-4; assay: Inhibition of the growth of leukemia (MOLT-4) cell line at 0.01 uM; assay type: functional; settings: Homo sapiens
[17] = test system: SR; assay: Inhibition of the growth of leukemia(SR) cell line at 0.01 uM; assay type: functional; settings: Homo sapiens
[18] = test system: SF-268; assay: inhibition of the growth of CNS cancer(SF-268) cell line; assay type: functional; settings: Homo sapiens
[19] = test system: 786-0; assay: Inhibition of the growth of renal cancer(786-0) cell line at 0.01 uM; assay type: functional; settings: Homo sapiens
[20] = test system: MDA-N; assay: Inhibition of the growth of breast cancer(MDA-N) cell line at 0.01 uM; assay type: functional; settings: Homo sapiens
[21] = test system: IGROV-1; assay: Inhibition of the growth of ovarian cancer(IGROVI) cell line at 0.01 uM; assay type: functional; settings: Homo sapiens
[22] = test system: MCF7; assay: inhibition of the growth of breast cancer (MCF-7) cell line; assay type: functional; settings: Homo sapiens
[23] = test system: M14; assay: Inhibition of the growth of melanoma cancer (M14) cell line at 0.01 uM; assay type: functional; settings: Homo sapiens
[24] = test system: NCI-H460; assay: Inhibition of the growth of non-small-cell lung cancer (NCI-H460) cell line at 0.01 uM; assay type: functional; settings: Homo sapiens
[25] = test system: SR; assay: Inhibition of the growth of leukemia(SR) cell line; assay type: functional; settings: Homo sapiens
[26] = test system: NCI/ADR-RES; assay: Inhibition of the growth of breast cancer (MCF7/ADR-RES) cell line at 0.01 uM; assay type: functional; settings: Homo sapiens
[27] = test system: HCT-15; assay: Inhibition of the growth of colon cancer(HCT-15) cell line at 0.01 uM; assay type: functional; settings: Homo sapiens
[28] = biological target: T1, Dihydrofolate reductase (Pneumocystis carinii, UniProt P16184)
T1 sequence (P16184 whole entry): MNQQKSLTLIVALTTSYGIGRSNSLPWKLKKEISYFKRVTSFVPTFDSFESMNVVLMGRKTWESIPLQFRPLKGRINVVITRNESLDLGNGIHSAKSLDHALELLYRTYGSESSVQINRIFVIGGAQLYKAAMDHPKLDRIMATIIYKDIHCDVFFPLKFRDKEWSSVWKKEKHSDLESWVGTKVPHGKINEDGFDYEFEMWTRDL
Description: Inhibitory activity against dihydrofolate reductase (DHFR) from Pneumocystis carinii

[29] = test system: UO-31; assay: Inhibition of the growth of renal cancer(UO-31) cell line at 0.01 uM; assay type: functional; settings: Homo sapiens
[30] = test system: SNB-19; assay: Inhibition of the growth of CNS cancer(SNB-19) cell line at 0.01 uM; assay type: functional; settings: Homo sapiens
[31] = test system: OVCAR-8; assay: inhibition of the growth of ovarian cancer(OVCAR-8) cell line; assay type: functional; settings: Homo sapiens
[32] = test system: M14; assay: inhibition of the growth of melanoma cancer (M14) cell line; assay type: functional; settings: Homo sapiens
[33] = test system: OVCAR-8; assay: Inhibition of the growth of ovarian cancer(OVCAR-8) cell line at 0.01 uM; assay type: functional; settings: Homo sapiens
[34] = test system: NCI-H322M; assay: inhibition of the growth of non-small-cell lung cancer (NCI-H322M) cell line; assay type: functional; settings: Homo sapiens
[35] = test system: CAKI-1; assay: Inhibition of the growth of renal cancer(CAKI-1) cell line at 0.01 uM; assay type: functional; settings: Homo sapiens
[36] = biological target: T2, Dihydrofolate reductase (Rattus norvegicus, UniProt Q920D2)
T2 sequence (Q920D2 whole entry): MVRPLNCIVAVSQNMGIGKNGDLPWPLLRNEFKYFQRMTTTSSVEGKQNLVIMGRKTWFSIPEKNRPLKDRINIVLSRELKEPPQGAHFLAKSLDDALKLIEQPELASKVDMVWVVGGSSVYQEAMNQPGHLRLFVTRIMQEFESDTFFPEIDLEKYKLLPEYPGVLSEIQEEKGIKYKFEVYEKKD
Description: Inhibitory activity against dihydrofolate reductase (DHFR) from rat liver

[37] = test system: NCI/ADR-RES; assay: inhibition of the growth of breast cancer (MCF7/ADR-RES) cell line; assay type: functional; settings: Homo sapiens
[38] = test system: NCI-H522; assay: Inhibition of the growth of non-small-cell lung cancer (NCI-H522) cell line; assay type: functional; settings: Homo sapiens
[39] = test system: DU-145; assay: Inhibition of the growth of prostate cancer(DU-145) cell line at 0.01 uM; assay type: functional; settings: Homo sapiens
[40] = test system: RPMI-8226; assay: Inhibition of the growth of leukemia (RPMI-8226) cell line AT 0.01 uM; assay type: functional; settings: Homo sapiens
[41] = test system: MDA-MB-435; assay: Inhibition of the growth of breast cancer (MDA-MB-435) cell line at 0.01 uM; assay type: functional; settings: Homo sapiens
[42] = biological target: T3, Bifunctional dihydrofolate reductase-thymidylate synthase (Toxoplasma gondii, UniProt Q07422)
T3 sequence (Q07422 whole entry): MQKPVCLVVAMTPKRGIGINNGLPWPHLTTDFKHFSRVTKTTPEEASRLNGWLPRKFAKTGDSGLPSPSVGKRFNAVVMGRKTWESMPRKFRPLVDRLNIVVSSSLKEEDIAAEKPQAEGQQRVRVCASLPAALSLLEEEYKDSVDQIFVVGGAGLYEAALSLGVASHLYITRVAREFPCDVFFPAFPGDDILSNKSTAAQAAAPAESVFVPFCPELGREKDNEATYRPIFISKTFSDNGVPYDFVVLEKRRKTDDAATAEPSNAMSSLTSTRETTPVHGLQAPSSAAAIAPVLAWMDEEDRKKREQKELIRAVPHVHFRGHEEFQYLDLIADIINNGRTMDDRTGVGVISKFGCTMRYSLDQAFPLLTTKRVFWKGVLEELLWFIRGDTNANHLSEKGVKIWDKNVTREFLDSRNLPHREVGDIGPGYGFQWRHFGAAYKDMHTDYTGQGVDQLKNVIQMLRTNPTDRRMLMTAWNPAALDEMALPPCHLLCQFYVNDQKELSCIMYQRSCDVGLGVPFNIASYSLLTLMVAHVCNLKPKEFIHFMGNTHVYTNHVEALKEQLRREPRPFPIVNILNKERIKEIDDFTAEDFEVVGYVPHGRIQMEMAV
Description: Inhibitory activity against dihydrofolate reductase (DHFR) from Toxoplasma gondii

[43] = test system: SK-MEL-5; assay: Inhibition of the growth of melanoma cancer (SK-MEL-5) cell line at 0.01 uM; assay type: functional; settings: Homo sapiens
[44] = test system: KM12; assay: Inhibition of the growth of colon cancer(KM-12) cell line at 0.01 uM; assay type: functional; settings: Homo sapiens
[45] = test system: RPMI-8226; assay: Inhibition of the growth of leukemia (RPMI-8226) cell line; assay type: functional; settings: Homo sapiens
[46] = test system: A549; assay: Inhibition of the growth of non-small-cell lung cancer (A549/ATCC) cell line; assay type: functional; settings: Homo sapiens
[47] = test system: MOLT-4; assay: Inhibition of the growth of leukemia (MOLT-4) cell line; assay type: functional; settings: Homo sapiens
[48] = test system: CAKI-1; assay: inhibition of the growth of renal cancer(CAKI-1) cell line; assay type: functional; settings: Homo sapiens
[49] = test system: MDA-N; assay: inhibition of the growth of breast cancer(MDA-N) cell line; assay type: functional; settings: Homo sapiens
[50] = test system: MDA-MB-435; assay: Inhibition of the growth of breast cancer (MDA-MB-435) cell line; assay type: functional; settings: Homo sapiens
[51] = test system: A549; assay: Inhibition of the growth of non-small-cell lung cancer (A549/ATCC) cell line at 0.01 uM; assay type: functional; settings: Homo sapiens
[52] = test system: KM12; assay: inhibition of the growth of colon cancer(KM-12) cell line; assay type: functional; settings: Homo sapiens
[53] = test system: NCI-H460; assay: inhibition of the growth of non-small-cell lung cancer (NCI-H460) cell line; assay type: functional; settings: Homo sapiens
[54] = test system: NCI-H23; assay: inhibition of the growth of non-small-cell lung cancer (NCI-H23) cell line at 0.01 uM; assay type: functional; settings: Homo sapiens
[55] = test system: MCF7; assay: Inhibition of the growth of breast cancer (MCF-7) cell line at 0.01 uM; assay type: functional; settings: Homo sapiens
[56] = test system: SNB-19; assay: inhibition of the growth of CNS cancer(SNB-19) cell line; assay type: functional; settings: Homo sapiens
[57] = test system: SK-MEL-5; assay: inhibition of the growth of melanoma cancer (SK-MEL-5) cell line; assay type: functional; settings: Homo sapiens

## COc1ccc(N(C)c2ccc3nc(N)nc(N)c3n2)cc1OC
[1]
  GI50: < 0.01 µM
[2]
  inhibition at 0.01 µM: 59%
[3]
  GI50: < 0.01 µM
[4]
  inhibition at 0.01 µM: 53%
[5]
  GI50: < 0.01 µM
[6]
  GI50: < 0.01 µM
[7]
  GI50: < 0.01 µM
[8]
  GI50: < 0.01 µM
[9]
  GI50: < 0.01 µM
[10]
  GI50: < 0.01 µM
[11]
  inhibition at 0.01 µM: 67%
[12]
  inhibition at 0.01 µM: 83%
[13]
  inhibition at 0.01 µM: 52%
[14]
  GI50: < 0.01 µM
[15]
  inhibition at 0.01 µM: 68%
[16]
  inhibition at 0.01 µM: 57%
[17]
  inhibition at 0.01 µM: 69%
[18]
  GI50: < 0.01 µM
[19]
  inhibition at 0.01 µM: 53%
[20]
  inhibition at 0.01 µM: 63%
[21]
  inhibition at 0.01 µM: 65%
[22]
  GI50: < 0.01 µM
[23]
  inhibition at 0.01 µM: 59%
[24]
  inhibition at 0.01 µM: 83%
[25]
  GI50: < 0.01 µM
[26]
  inhibition at 0.01 µM: 84%
[27]
  inhibition at 0.01 µM: 75%
[28]
  IC50: 0.0023 µM
[29]
  inhibition at 0.01 µM: 100%
[30]
  inhibition at 0.01 µM: 90%
[31]
  GI50: < 0.01 µM
[32]
  GI50: < 0.01 µM
[33]
  inhibition at 0.01 µM: 76%
[34]
  GI50: < 0.01 µM
[35]
  inhibition at 0.01 µM: 81%
[36]
  IC50: 0.0004 µM
[37]
  GI50: < 0.01 µM
[38]
  GI50: < 0.01 µM
[39]
  inhibition at 0.01 µM: 57%
[40]
  inhibition at 0.01 µM: 69%
[41]
  inhibition at 0.01 µM: 72%
[42]
  IC50: 0.00088 µM
[43]
  inhibition at 0.01 µM: 83%
[44]
  inhibition at 0.01 µM: 56%
[45]
  GI50: < 0.01 µM
[46]
  GI50: < 0.01 µM
[47]
  GI50: < 0.01 µM
[48]
  GI50: < 0.01 µM
[49]
  GI50: < 0.01 µM
[50]
  GI50: < 0.01 µM
[51]
  inhibition at 0.01 µM: 70%
[52]
  GI50: < 0.01 µM
[53]
  GI50: < 0.01 µM
[54]
  inhibition at 0.01 µM: 82%
[55]
  inhibition at 0.01 µM: 60%
[56]
  GI50: < 0.01 µM
[57]
  GI50: < 0.01 µM
